Source: patent US11858894B2, “Crystalline form of 1-(5-(2,4-Difluorophenyl)-1-((3-fluorophenyl)sulfonyl)-4-methoxy-1H-pyrrol-3-yl)-n-methylmethanamine salt” (Daewoong Pharmaceutical Co., Ltd., priority 2016, dated 2024)

Legend:
Solubility test in water = type: physicochemical; conditions: thermodynamic from solid; deionized water, shaking and ultrasonic shaking
Procedure: For the solubility test in water, a sample of less than 10 mg was first precisely weighed and taken and placed into a vial, to which 50 μl of deionized water was added, shaking for 30 seconds and ultrasonic shaking for 1 minute were carried out, and these processes were repeated several times. The water solubility was calculated by measuring the amount of water used to dissolve all the samples.

[1] = Stability confirmation test (impurity formation during storage under severe conditions, liquid chromatography); type: physicochemical
Procedure: The stability test was carried out for the crystalline forms prepared in the Examples to evaluate the degree to which impurities were formed during storage under severe conditions (moisture-proof condition and high-humidity exposure condition). The results of the stability test under the moisture-proof condition were shown in Table 2 below, and the results of the stability test under the high-humidity exposure condition were shown in Table 3 below. For the stability test, vials containing 10 mg of each sample which was precisely weighed and taken were prepared in the planned quantity, and they were stored by dividing into the moisture-proof condition (60° C. and less than 10% relative humidity) and under the high-humidity exposure condition (60° C. and 95% relative humidity). However, under the high-humidity exposure condition, a stopper of the vial was not used to keep so that the sample is in sufficient contact with a moisture in the air. At a fixed point of time after the initiation of the test, two vials per point of time were taken (number of samples per test n=2). 10 ml of methanol was added to each vial to dissolve the sample, which was then centrifuged. The resulting supernatant was analyzed using a liquid chromatography. The peak area was determined by integration for all detected peaks, and the relative peak area for the main component and the total impurity was calculated and expressed as an average value.

[2] = high-humidity exposure condition (60° C., 95% relative humidity), After 1 week
[3] = high-humidity exposure condition (60° C., 95% relative humidity), After 2 weeks
[4] = high-humidity exposure condition (60° C., 95% relative humidity), After 4 weeks
[5] = high-humidity exposure condition (60° C., 95% relative humidity), Initial
[6] = moisture-proof condition (60° C., less than 10% relative humidity), After 2 weeks
[7] = moisture-proof condition (60° C., less than 10% relative humidity), After 4 weeks
[8] = moisture-proof condition (60° C., less than 10% relative humidity), Initial

Structure (SMILES)	solubility (Solubility test in water)	Peak area of main component [1, 2]	Peak area of total impurities [1, 2]	Peak area of main component [1, 3]	Peak area of total impurities [1, 3]	Peak area of main component [1, 4]	Peak area of total impurities [1, 4]	Peak area of main component [1, 5]	Peak area of total impurities [1, 5]	Peak area of main component [1, 6]	Peak area of total impurities [1, 6]	Peak area of main component [1, 7]	Peak area of total impurities [1, 7]	Peak area of main component [1, 8]	Peak area of total impurities [1, 8]
CNCc1cn(S(=O)(=O)c2cccc(F)c2)c(-c2ccc(F)cc2F)c1OC [Comparative Example 1, 1-(5-(2,4-difluorophenyl)-1-((3-fluorophenyl)sulfonyl)-4-methoxy-1H-pyrrol-3-yl)-N-methylmethanamine free base]	< 160 µg/mL	–	–	–	–	–	–	–	–	–	–	–	–	–	–
CNCc1cn(S(=O)(=O)c2cccc(F)c2)c(-c2ccc(F)cc2F)c1OC.Cl [Example 1-1, 1-(5-(2,4-difluorophenyl)-1-((3-fluorophenyl)sulfonyl)-4-methoxy-1H-pyrrol-3-yl)-N-methylmethanamine hydrochloride]	–	99.81%	0.19%	99.80%	0.20%	99.80%	0.20%	99.82%	0.18%	99.80%	0.19%	99.80%	0.20%	99.82%	0.18%
CNCc1cn(S(=O)(=O)c2cccc(F)c2)c(-c2ccc(F)cc2F)c1OC.O=C(O)CCC(=O)O [Example 3-1, 1-(5-(2,4-difluorophenyl)-1-((3-fluorophenyl)sulfonyl)-4-methoxy-1H-pyrrol-3-yl)-N-methylmethanamine succinate]	–	99.56%	0.44%	99.53%	0.47%	99.47%	0.54%	99.55%	0.45%	99.61%	0.39%	99.55%	0.45%	99.55%	0.45%
CNCc1cn(S(=O)(=O)c2cccc(F)c2)c(-c2ccc(F)cc2F)c1OC.O=C(O)C(O)C(O)C(=O)O [Example 4-1, 1-(5-(2,4-difluorophenyl)-1-((3-fluorophenyl)sulfonyl)-4-methoxy-1H-pyrrol-3-yl)-N-methylmethanamine tartrate]	–	99.48%	0.52%	99.43%	0.57%	99.23%	0.77%	99.52%	0.48%	99.54%	0.46%	99.48%	0.52%	99.52%	0.48%
CNCc1cn(S(=O)(=O)c2cccc(F)c2)c(-c2ccc(F)cc2F)c1OC.O=C(O)/C=C/C(=O)O [Example 5-1, 1-(5-(2,4-difluorophenyl)-1-((3-fluorophenyl)sulfonyl)-4-methoxy-1H-pyrrol-3-yl)-N-methylmethanamine fumarate]	1730 to 2600 µg/mL	99.40%	0.60%	99.32%	0.68%	99.30%	0.70%	99.38%	0.62%	99.36%	0.64%	99.37%	0.63%	99.38%	0.62%
